In brackets after ≈: the same amount, converted by molar mass. Activity calls are given as the source filed them. No cut-off for these calls is given here.
What was measured:
[1] = biological target: T1, Cholesteryl ester transfer protein (Homo sapiens, UniProt P11597); test: Inhibition of CETP in human whole plasma assessed as reduction in [3H]cholesteryl ester transfer from [3H]CE-HDL to LDL/VLDL; assay type: cell-free
T1 sequence (P11597 whole entry): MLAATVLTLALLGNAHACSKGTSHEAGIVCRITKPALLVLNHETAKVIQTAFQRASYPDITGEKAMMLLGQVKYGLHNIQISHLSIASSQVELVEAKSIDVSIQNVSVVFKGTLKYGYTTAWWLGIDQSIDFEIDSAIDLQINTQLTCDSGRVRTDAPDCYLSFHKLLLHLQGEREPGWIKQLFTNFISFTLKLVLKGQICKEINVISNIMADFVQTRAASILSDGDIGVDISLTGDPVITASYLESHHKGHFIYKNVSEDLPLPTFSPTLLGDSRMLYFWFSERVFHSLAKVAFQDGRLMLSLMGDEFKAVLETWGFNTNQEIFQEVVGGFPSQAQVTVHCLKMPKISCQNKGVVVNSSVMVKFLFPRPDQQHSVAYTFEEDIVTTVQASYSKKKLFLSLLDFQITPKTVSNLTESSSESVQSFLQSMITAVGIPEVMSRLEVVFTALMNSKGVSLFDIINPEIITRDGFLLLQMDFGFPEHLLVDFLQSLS

[2] = Aqueous solubility of compound; assay type: physicochemical; conditions: buffer
[3] = biological target: T1, Cholesteryl ester transfer protein; test: Inhibition of human recombinant CETP assessed as reduction in [3H]cholesteryl ester transfer from [3H]CE-HDL to biotinylated LDL by scintillation proximity assay
Mus musculus [4] = test: In vivo inhibition of human CETP-mediated [3H]cholesteryl ester transfer in human CETP expressed transgenic mouse coexpressing ApoB-100 at 30 mg/kg, po measured at 2 to 8 hrs post dose; assay type: functional, organism-based
[5] = Ratio of plasma concentration in dual transgenic mouse expressing human CETP/ApoB-100 at 30 mg/kg, po measured at 4 hrs post dose to IC50 for CETP in human whole plasma; assay type: ADME, organism-based; conditions: in vivo
Oryctolagus cuniculus [6] = test: Cardiotoxicity in rabbit assessed as QT prolongation up to 10 mg/kg by electrophysiology method; assay type: toxicity, organism-based; conditions: in vivo
[7] = AUC (0 to 8 hrs) in dual transgenic mouse plasma expressing human CETP/ApoB-100 at 30 mg/kg, po; assay type: ADME, organism-based; parameters: dose 30 mg/kg, time < 8 hr, route oral
[8] = Plasma concentration in dual transgenic mouse expressing human CETP/ApoB-100 at 30 mg/kg, po measured at 8 hrs post dose; assay type: ADME, organism-based
Oryctolagus cuniculus [9] = test: Cardiotoxicity in rabbit assessed as changes in QT interval up to 10 mg/kg by electrophysiology method; assay type: toxicity, organism-based; conditions: in vivo
hERG (KCNH2) [10] = biological target: T2, hERG (KCNH2) (Homo sapiens, UniProt Q12809); test: Inhibition of recombinant human ERG expressed in HEK293 cells assessed as inhibition of peak tail current at 1 uM by patch clamp assay relative to control; assay type: cell-based; conditions: HEK293 cells expressing recombinant human ERG
hERG (KCNH2) [11] = biological target: T2, hERG (KCNH2); test: Inhibition of recombinant human ERG expressed in HEK293 cells assessed as inhibition of peak tail current at 3 uM by patch clamp assay relative to control; assay type: cell-based; conditions: HEK293 cells expressing recombinant human ERG
Oryctolagus cuniculus [12] = test: Cardiotoxicity in rabbit assessed as changes in QTcf interval up to 10 mg/kg by electrophysiology method; assay type: toxicity, organism-based; conditions: in vivo
Oryctolagus cuniculus [13] = test: Cardiotoxicity in rabbit assessed as QRS prolongation at 30 mg/kg by electrophysiology method; assay type: toxicity, organism-based; conditions: in vivo
Oryctolagus cuniculus [14] = test: Cardiotoxicity in rabbit assessed as QT prolongation at 30 mg/kg by electrophysiology method; assay type: toxicity, organism-based; conditions: in vivo
Oryctolagus cuniculus [15] = test: Cardiotoxicity in rabbit assessed as changes in QTcv interval up to 10 mg/kg by electrophysiology method; assay type: toxicity, organism-based; conditions: in vivo
[16] = Plasma concentration in dual transgenic mouse expressing human CETP/ApoB-100 at 30 mg/kg, po measured at 4 hrs post dose; assay type: ADME, organism-based
[17] = Metabolic stability in rat liver microsomes assessed as compound remaining at 3 uM after 10 mins by UV absorbance method; assay type: ADME; conditions: read-out: Stability
[18] = Metabolic stability in human liver microsomes assessed as compound remaining at 3 uM after 10 mins by UV absorbance method; assay type: ADME; conditions: read-out: Stability
[19] = Plasma concentration in dual transgenic mouse expressing human CETP/ApoB-100 at 30 mg/kg, po measured at 2 hrs post dose; assay type: ADME, organism-based
[20] = Ratio of plasma concentration in dual transgenic mouse expressing human CETP/ApoB-100 at 30 mg/kg, po measured at 2 hrs post dose to IC50 for CETP in human whole plasma; assay type: ADME, organism-based; conditions: in vivo
[21] = Metabolic stability in mouse liver microsomes assessed as compound remaining at 3 uM after 10 mins by UV absorbance method; assay type: ADME; conditions: read-out: Stability
[22] = biological target: T3, Voltage-gated inwardly rectifying potassium channel KCNH2 (Homo sapiens, UniProt Q12809); test: Inhibition of recombinant human ERG flux expressed in HEK293 cells by patch clamp assay; assay type: cell-based
[23] = Plasma concentration in dual transgenic mouse expressing human CETP/ApoB-100 at 3 mg/kg, po measured at 2 hrs post dose; assay type: ADME, organism-based
[24] = Ratio of plasma concentration in dual transgenic mouse expressing human CETP/ApoB-100 at 10 mg/kg, po measured at 2 hrs post dose to IC50 for CETP in human whole plasma; assay type: ADME, organism-based; conditions: in vivo
[25] = Plasma concentration in dual transgenic mouse expressing human CETP/ApoB-100 at 10 mg/kg, po measured at 2 hrs post dose; assay type: ADME, organism-based
[26] = AUC (0 to 8 hrs) in dual transgenic mouse plasma expressing human CETP/ApoB-100 at 3 mg/kg, po; assay type: ADME, organism-based; parameters: dose 3 mg/kg, time < 8 hr, route oral
[27] = Plasma concentration in dual transgenic mouse expressing human CETP/ApoB-100 at 10 mg/kg, po measured at 4 hrs post dose; assay type: ADME, organism-based
[28] = AUC (0 to 8 hrs) in dual transgenic mouse plasma expressing human CETP/ApoB-100 at 10 mg/kg, po; assay type: ADME, organism-based; parameters: time < 8 hr, dose 10 mg/kg, route oral
[29] = biological target: T3, Voltage-gated inwardly rectifying potassium channel KCNH2; test: Inhibition of recombinant human ERG expressed in HEK293 cells assessed as inhibition of peak tail current by patch clamp assay; assay type: cell-based
[30] = Plasma concentration in dual transgenic mouse expressing human CETP/ApoB-100 at 3 mg/kg, po measured at 4 hrs post dose; assay type: ADME, organism-based
[31] = Plasma concentration in dual transgenic mouse expressing human CETP/ApoB-100 at 10 mg/kg, po measured at 8 hrs post dose; assay type: ADME, organism-based
[32] = Ratio of plasma concentration in dual transgenic mouse expressing human CETP/ApoB-100 at 10 mg/kg, po measured at 4 hrs post dose to IC50 for CETP in human whole plasma; assay type: ADME, organism-based; conditions: in vivo
[33] = Plasma concentration in dual transgenic mouse expressing human CETP/ApoB-100 at 1 mg/kg, po measured at 2 hrs post dose; assay type: ADME, organism-based
[34] = Plasma concentration in dual transgenic mouse expressing human CETP/ApoB-100 at 3 mg/kg, po measured at 8 hrs post dose; assay type: ADME, organism-based
[35] = Plasma concentration in dual transgenic mouse expressing human CETP/ApoB-100 at 1 mg/kg, po measured at 8 hrs post dose; assay type: ADME, organism-based
[36] = AUC (0 to 8 hrs) in dual transgenic mouse plasma expressing human CETP/ApoB-100 at 1 mg/kg, po; assay type: ADME, organism-based; parameters: time < 8 hr, dose 1 mg/kg, route oral
Mus musculus [37] = test: In vivo inhibition of human CETP-mediated [3H]cholesteryl ester transfer in human CETP expressed transgenic mouse coexpressing ApoB-100 at 3 to 10 mg/kg, po measured at 8 hrs post dose relative to control; assay type: functional
[38] = Plasma concentration in dual transgenic mouse expressing human CETP/ApoB-100 at 1 mg/kg, po measured at 4 hrs post dose; assay type: ADME, organism-based

T3 sequence (Q12809 whole entry): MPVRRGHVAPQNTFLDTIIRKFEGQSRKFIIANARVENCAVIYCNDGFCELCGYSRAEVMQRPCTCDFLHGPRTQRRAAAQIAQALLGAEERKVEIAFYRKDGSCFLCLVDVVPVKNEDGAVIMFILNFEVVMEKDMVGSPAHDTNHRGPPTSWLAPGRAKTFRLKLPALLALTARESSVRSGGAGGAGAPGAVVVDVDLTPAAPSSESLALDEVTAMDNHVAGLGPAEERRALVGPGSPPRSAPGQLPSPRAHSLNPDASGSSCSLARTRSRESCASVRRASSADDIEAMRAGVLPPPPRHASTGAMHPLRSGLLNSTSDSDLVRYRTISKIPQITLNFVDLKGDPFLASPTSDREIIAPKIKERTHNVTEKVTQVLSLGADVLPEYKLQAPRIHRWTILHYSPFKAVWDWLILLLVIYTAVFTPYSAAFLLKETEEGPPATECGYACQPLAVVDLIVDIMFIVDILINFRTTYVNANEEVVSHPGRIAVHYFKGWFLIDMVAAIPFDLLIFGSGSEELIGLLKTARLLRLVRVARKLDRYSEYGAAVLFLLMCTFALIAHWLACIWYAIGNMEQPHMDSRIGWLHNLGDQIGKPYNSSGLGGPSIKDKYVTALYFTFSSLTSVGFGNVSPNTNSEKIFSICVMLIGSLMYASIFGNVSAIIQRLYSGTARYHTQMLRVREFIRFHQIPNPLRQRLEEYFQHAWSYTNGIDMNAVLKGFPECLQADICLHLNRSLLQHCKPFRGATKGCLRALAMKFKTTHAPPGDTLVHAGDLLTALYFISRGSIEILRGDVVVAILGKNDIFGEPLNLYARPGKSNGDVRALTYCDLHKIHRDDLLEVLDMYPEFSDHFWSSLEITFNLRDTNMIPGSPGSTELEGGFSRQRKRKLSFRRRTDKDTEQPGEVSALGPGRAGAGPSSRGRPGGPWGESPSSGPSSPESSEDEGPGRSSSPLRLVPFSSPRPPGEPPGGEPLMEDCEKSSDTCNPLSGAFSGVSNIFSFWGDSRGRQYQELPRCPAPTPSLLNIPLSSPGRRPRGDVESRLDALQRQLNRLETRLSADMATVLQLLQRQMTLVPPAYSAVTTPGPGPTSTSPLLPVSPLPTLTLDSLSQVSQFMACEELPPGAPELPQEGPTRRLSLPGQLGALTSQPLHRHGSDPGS
T2 sequence (Q12809 whole entry): as above

Row | Structure (SMILES) | IC50 [1] | solubility [2] | IC50 [3] | remaining at 10 min, 3 µM [17] | remaining at 10 min, 3 µM [18] | remaining at 10 min, 3 µM [21] | also measured
1 | CO[C@H](CN[C@@](Cc1ccccc1)(c1cc(F)cc(C(F)(F)F)c1)c1ccc(Cl)cn1)C(F)(F)F | 48000 nM | < 1 µg/mL | 253 nM |  |  |  | 
2 | C[C@@H](O)CN[C@@](Cc1ccccc1)(c1cc(F)cc(C(F)(F)F)c1)c1ccc(Cl)cn1 | 32000 nM | < 1 µg/mL | 520 nM |  |  |  | 
3 | O[C@H](CN[C@@](Cc1ccccc1)(c1cc(F)cc(OC(F)(F)C(F)F)c1)c1ccc(Cl)cn1)C(F)(F)F | 900 nM |  | 14 nM | 84% | 100% | 88% | inhibition (Mus musculus [4]): Active; Ratio [5]: 3.3; Activity (Oryctolagus cuniculus [6]): Non-toxic; AUC(0-t) at 8 h [7]: 26.9 µM·h; concentration at 8 h [8]: 1300 nM; Activity (Oryctolagus cuniculus [9]): Non-toxic; inhibition at 1 µM (hERG (KCNH2) [10]): 43%; inhibition at 3 µM (hERG (KCNH2) [11]): 87%; Activity (Oryctolagus cuniculus [12]): Non-toxic; Activity (Oryctolagus cuniculus [13]): Toxic; Activity (Oryctolagus cuniculus [14]): Toxic; Activity (Oryctolagus cuniculus [15]): Non-toxic; concentration at 4 h [16]: 3000 nM; concentration at 2 h [19]: 5200 nM; Ratio [20]: 5.7
4 | OC(CN[C@@](Cc1ccccc1)(c1cc(F)cc(C(F)(F)F)c1)c1ccc(Cl)cn1)CC(F)(F)F (stereo partly specified) | 1200 nM | < 1 µg/mL | 9 nM | 69% | 93% | 73% | 
5 | OC(CN[C@@](Cc1ccccc1)(c1cc(F)cc(OC(F)(F)C(F)F)c1)c1ccc(Cl)cn1)CC(F)(F)F (stereo partly specified) | 600 nM |  | 1.5 nM | 87% | 100% | 88% | AUC(0-t) at 8 h [7]: 18.1 µM·h; concentration at 8 h [8]: 490 nM; concentration at 4 h [16]: 2600 nM; concentration at 2 h [19]: 5400 nM
6 | CC(=O)O[C@H](CN[C@@](Cc1ccccc1)(c1cc(F)cc(C(F)(F)F)c1)c1ccc(Cl)cn1)C(F)(F)F | 100000 nM | < 1 µg/mL | 826 nM |  |  |  | 
7 | O=C(CN[C@@](Cc1ccccc1)(c1cc(F)cc(C(F)(F)F)c1)c1ccc(Cl)cn1)CC(F)(F)F | 30000 nM | < 1 µg/mL | 641 nM |  |  |  | 
8 | C[C@H](O)CN[C@@](Cc1ccccc1)(c1cc(F)cc(C(F)(F)F)c1)c1ccc(Cl)cn1 | 20000 nM | < 1 µg/mL | 334 nM |  |  |  | 
9 | OC[C@@H](O)CN[C@@](Cc1ccccc1)(c1cc(F)cc(C(F)(F)F)c1)c1ccc(Cl)cn1 | 98000 nM | 37 µg/mL (≈ 78.9 µM) | 3100 nM |  |  |  | 
10 | O=C(N[C@@](Cc1ccccc1)(c1cc(F)cc(C(F)(F)F)c1)c1ccc(Cl)cn1)c1ccc(F)c(C(F)(F)F)c1 | 7000 nM | < 1 µg/mL | 52 nM | 97% | 93% | 100% | 
11 | CC(C)Oc1cc([C@@](Cc2ccccc2)(NC[C@H](O)C(F)(F)F)c2cc(F)cc(OC(F)(F)C(F)F)c2)ccc1F | 238 nM |  | 2.9 nM |  |  |  | IC50 [22]: 12000 nM
12 | CC(C)Oc1cc([C@@](Cc2ccccc2)(NC[C@H](O)CC(F)(F)F)c2cc(F)cc(OC(F)(F)C(F)F)c2)ccc1F | 49 nM |  | 1.3 nM | 83% | 83% | 85% | IC50 [22]: 28000 nM; concentration at 2 h [23]: 380 nM; Ratio [24]: 19; concentration at 2 h [25]: 960 nM; AUC(0-t) at 8 h [26]: 1.04 µM·h; concentration at 4 h [27]: 250 nM; AUC(0-t) at 8 h [28]: 2.66 µM·h; IC50 [29]: 25600 nM; concentration at 4 h [30]: 89 nM; concentration at 8 h [31]: 92 nM; Ratio [32]: 5; concentration at 2 h [33]: 180 nM; concentration at 8 h [34]: 45 nM; concentration at 8 h [35]: 28 nM; AUC(0-t) at 8 h [36]: 0.543 µM·h; inhibition (INH) (Mus musculus [37]): 50%; concentration at 4 h [38]: 54 nM
13 | O[C@H](CN[C@@](Cc1ccccc1)(c1cc(F)cc(C(F)(F)F)c1)c1ccc(Cl)cn1)C(F)(F)F | 1600 nM | < 1 µg/mL | 22 nM | 88% | 100% | 95% | 
14 | CC(C)Oc1cc([C@@](Cc2ccccc2)(NC[C@@H](O)C(F)(F)F)c2cc(F)cc(OC(F)(F)C(F)F)c2)ccc1F | 55 nM |  | 1.8 nM | 83% | 83% | 85% | IC50 [22]: 21000 nM
15 | OC[C@H](O)CN[C@@](Cc1ccccc1)(c1cc(F)cc(C(F)(F)F)c1)c1ccc(Cl)cn1 |  | 44 µg/mL (≈ 93.8 µM) | 8530 nM |  |  |  | 
16 | CC(C)Oc1cc([C@@](Cc2ccccc2)(NC[C@@H](O)CC(F)(F)F)c2cc(F)cc(OC(F)(F)C(F)F)c2)ccc1F | 169 nM |  | 2.5 nM |  |  |  | IC50 [22]: 23000 nM
